Results taken from PubChem BioAssay AID324 (DTP/NCI, 2004).
Values joined by “and” are separate entries in the source; they are usually repeats but may differ in a detail not shown here. Equal values may be shown once. Inconclusive results and toxic doses are left out.

Test system: CD2F1 mice, AMSA-resistant P388 leukemia ip, median survival T/C
Experiment: NCI In Vivo Anticancer Drug Screen. Data for tumor model P388 Leukemia resistant to AMSA; NSC 249992 (intraperitoneal) in CD2F1 (CDF1) mice
Settings: endpoint: median survival time, higher = longer survival
Protocol: The antitumor activity of compounds was measured in mice bearing transplantable tumors. Survival or tumor size were measured and the results are expressed as the measurement made in the treated group (T) divided by the measurement made in the vehicle treated control group (C). The tumor model used in this assay is P388 Leukemia resistant to AMSA; NSC 249992 (intraperitoneal) in CD2F1 (CDF1) mice

Structure (SMILES): COc1cccc2c1C(=O)c1c(O)c3c(c(O)c1C2=O)C[C@@](O)(C(=O)CO)C[C@@H]3OC1CC(N)C(O)C(C)O1 (stereo partly drawn)
- T/C (dose: 0.97 mg/kg/injection, schedule: Q04DX003 (ip), vehicle: saline): 118 % of control and 124 % of control
- T/C (dose: 1.3 mg/kg/injection, schedule: Q04DX002 (ip), vehicle: saline): 109 % of control and 86 % of control
- T/C (dose: 1.62 mg/kg/injection, schedule: Q04DX003 (ip), vehicle: saline): 121 % of control
- T/C (dose: 2.16 mg/kg/injection, schedule: Q04DX002 (ip), vehicle: saline): 104 % of control
- T/C (dose: 2.7 mg/kg/injection, schedule: Q04DX003 (ip), vehicle: saline): 122 % of control
- T/C (dose: 4.5 mg/kg/injection, schedule: Q04DX003 (ip), vehicle: saline): 152 % of control
- T/C (dose: 6.0 mg/kg/injection, schedule: Q04DX002 (ip), vehicle: saline): 90 % of control

Structure (SMILES): CC[C@]1(O)C[C@H]2CN(CCc3c([nH]c4ccccc34)[C@@](C(=O)OC)(c3cc4c(cc3OC)N(C=O)[C@H]3[C@@](O)(C(=O)OC)[C@H](OC(C)=O)[C@]5(CC)C=CCN6CC[C@]43[C@@H]65)C2)C1
- T/C (dose: 0.72 mg/kg/injection, schedule: Q04DX003 (ip), vehicle: saline): 176 % of control
- T/C (dose: 1.0 mg/kg/injection, schedule: Q04DX003 (ip), vehicle: saline): 102 % of control
- T/C (dose: 1.2 mg/kg/injection, schedule: Q04DX003 (ip), vehicle: saline): 201 % of control
- T/C (dose: 2.0 mg/kg/injection, schedule: Q04DX003 (ip), vehicle: saline): 193 % of control

Structure (SMILES): COc1c(O)c2c(c3cc(C(=O)N4CCc5c4c(O)c(OC)c4[nH]c(C(=O)N6CC7CC78C6=CC(=O)c6[nH]cc(C)c68)cc54)[nH]c13)CCN2C(N)=O (stereo not drawn)
- T/C (dose: 0.04 mg/kg/injection, schedule: Q01DX001 (ip), vehicle: DMSO): 118 % of control
- T/C (dose: 0.06 mg/kg/injection, schedule: Q01DX001 (ip), vehicle: DMSO): 123 % of control
- T/C (dose: 0.18 mg/kg/injection, schedule: Q01DX001 (ip), vehicle: DMSO): 109 % of control

Structure (SMILES): COc1cccc2c1C(=O)c1c(O)c3c(c(O)c1C2=O)C[C@@](O)(/C(C)=N/NC(=O)c1ccccc1)C[C@@H]3OC1CC(N)C(O)C(C)O1 (stereo partly drawn)
- T/C (dose: 1.94 mg/kg/injection, schedule: Q04DX003 (ip), vehicle: water): 109 % of control
- T/C (dose: 3.24 mg/kg/injection, schedule: Q04DX003 (ip), vehicle: water): 117 % of control
- T/C (dose: 5.4 mg/kg/injection, schedule: Q04DX003 (ip), vehicle: water): 123 % of control
- T/C (dose: 9.0 mg/kg/injection, schedule: Q04DX003 (ip), vehicle: water): 123 % of control
- T/C (dose: 15.0 mg/kg/injection, schedule: Q04DX003 (ip), vehicle: water): 115 % of control

Structure (SMILES): CCCCC(=O)OCC(=O)[C@]1(O)Cc2c(O)c3c(c(O)c2[C@@H](OC2CC(NC(=O)C(F)(F)F)C(O)C(C)O2)C1)C(=O)c1c(OC)cccc1C3=O (stereo partly drawn)
- T/C (dose: 19.4 mg/kg/injection, schedule: Q04DX003 (ip), vehicle: clinical formulation): 106 % of control
- T/C (dose: 32.4 mg/kg/injection, schedule: Q04DX003 (ip), vehicle: clinical formulation): 117 % of control
- T/C (dose: 54.0 mg/kg/injection, schedule: Q04DX003 (ip), vehicle: clinical formulation): 120 % of control
- T/C (dose: 90.0 mg/kg/injection, schedule: Q04DX003 (ip), vehicle: clinical formulation): 113 % of control

Structure (SMILES): C[n+]1ccc(Nc2ccc(NC(=O)c3ccc(Nc4cc[n+](C)c5ccc(N)cc45)cc3)cc2)cc1
- T/C (dose: 1.73 mg/kg/injection, schedule: Q04DX003 (ip), vehicle: water): 155 % of control
- T/C (dose: 4.8 mg/kg/injection, schedule: Q04DX003 (ip), vehicle: water): 154 % of control
- T/C (dose: 8.0 mg/kg/injection, schedule: Q04DX003 (ip), vehicle: water): 182 % of control

Structure (SMILES): CCN(CC)C1CC(O[C@H]2C[C@](O)(C(C)=O)Cc3c(O)c4c(c(O)c32)C(=O)c2c(OC)cccc2C4=O)OC(C)C1O (stereo partly drawn)
- T/C (dose: 4.32 mg/kg/injection, schedule: Q04DX003 (ip), vehicle: water): 117 % of control
- T/C (dose: 20.0 mg/kg/injection, schedule: Q04DX003 (ip), vehicle: water): 166 % of control

Structure (SMILES): C(=N/NC1=NCCN1)/c1c2ccccc2c(/C=N\NC2=NCCN2)c2ccccc12
- T/C (dose: 5.18 mg/kg/injection, schedule: Q04DX002 (ip), vehicle: saline): 121 % of control
- T/C (dose: 14.4 mg/kg/injection, schedule: Q04DX002 (ip), vehicle: saline): 123 % of control
- T/C (dose: 40.0 mg/kg/injection, schedule: Q04DX002 (ip), vehicle: saline): 123 % of control

Structure (SMILES): COC(=O)[C@@H]1c2cc3c(c(O)c2[C@@H](OC2OC(C)C(OC)C(C)(OC)C2OC)C[C@]1(C)O)C(=O)c1c(O)cc2c(c1C3=O)O[C@H]1O[C@]2(C)[C@H](O)[C@@H](N(C)C)[C@@H]1O (stereo partly drawn)
- T/C (dose: 0.43 mg/kg/injection, schedule: Q04DX003 (ip), vehicle: water): 108 % of control
- T/C (dose: 0.52 mg/kg/injection, schedule: Q04DX003 (ip), vehicle: clinical formulation): 107 % of control
- T/C (dose: 0.72 mg/kg/injection, schedule: Q04DX003 (ip), vehicle: water): 113 % of control
- T/C (dose: 0.86 mg/kg/injection, schedule: Q04DX003 (ip), vehicle: clinical formulation): 114 % of control
- T/C (dose: 1.2 mg/kg/injection, schedule: Q04DX003 (ip), vehicle: water): 107 % of control
- T/C (dose: 1.44 mg/kg/injection, schedule: Q04DX003 (ip), vehicle: clinical formulation): 112 % of control
- T/C (dose: 2.0 mg/kg/injection, schedule: Q04DX003 (ip), vehicle: water): 118 % of control
- T/C (dose: 2.4 mg/kg/injection, schedule: Q04DX003 (ip), vehicle: clinical formulation): 110 % of control
- T/C (dose: 3.33 mg/kg/injection, schedule: Q04DX003 (ip), vehicle: water): 97 % of control

Structure (SMILES): CCC1(O)CC2CN(CCc3c([nH]c4ccccc34)C(C(=O)OC)(c3cc4c(cc3OC)N(C)C3C(O)(C(N)=O)C(O)C5(CC)C=CCN6CCC43C65)C2)C1 (stereo not drawn) (tested in a mixture with another compound)
- T/C (dose: 0.5 mg/kg/injection, schedule: Q04DX003 (ip), vehicle: clinical formulation): 150 % of control
- T/C (dose: 0.83 mg/kg/injection, schedule: Q04DX003 (ip), vehicle: clinical formulation): 162 % of control

Structure (SMILES): Cc1c2ccncc2c(C)c2c1[nH]c1ccccc12
- T/C (dose: 7.78 mg/kg/injection, schedule: Q04DX003 (ip), vehicle: saline with Tween-80): 100 % of control
- T/C (dose: 13.0 mg/kg/injection, schedule: Q04DX003 (ip), vehicle: saline with Tween-80): 87 % of control
- T/C (dose: 13.0 mg/kg/injection, schedule: Q04DX003 (ip), vehicle: water): 96 % of control
- T/C (dose: 21.6 mg/kg/injection, schedule: Q04DX003 (ip), vehicle: saline with Tween-80): 100 % of control
- T/C (dose: 21.6 mg/kg/injection, schedule: Q04DX003 (ip), vehicle: water): 100 % of control
- T/C (dose: 25.9 mg/kg/injection, schedule: Q04DX002 (ip), vehicle: saline with Tween-80): 100 % of control
- T/C (dose: 36.0 mg/kg/injection, schedule: Q04DX003 (ip), vehicle: saline with Tween-80): 101 % of control
- T/C (dose: 36.0 mg/kg/injection, schedule: Q04DX003 (ip), vehicle: water): 101 % of control
- T/C (dose: 43.2 mg/kg/injection, schedule: Q04DX002 (ip), vehicle: saline with Tween-80): 98 % of control
- T/C (dose: 60.0 mg/kg/injection, schedule: Q04DX003 (ip), vehicle: saline with Tween-80): 109 % of control
- T/C (dose: 60.0 mg/kg/injection, schedule: Q04DX003 (ip), vehicle: water): 89 % of control
- T/C (dose: 72.0 mg/kg/injection, schedule: Q04DX002 (ip), vehicle: saline with Tween-80): 95 % of control
- T/C (dose: 120.0 mg/kg/injection, schedule: Q04DX002 (ip), vehicle: saline with Tween-80): 95 % of control
- T/C (dose: 200.0 mg/kg/injection, schedule: Q04DX002 (ip), vehicle: saline with Tween-80): 95 % of control

Structure (SMILES): COc1cccc2c1C(=O)c1c(O)c3c(c(O)c1C2=O)C[C@@](O)(C(=O)CO)C[C@@H]3OC1CC([N+](C)(C)C)C(O)C(C)O1 (stereo partly drawn)
- T/C (dose: 3.89 mg/kg/injection, schedule: Q04DX003 (ip), vehicle: water): 103 % of control
- T/C (dose: 6.48 mg/kg/injection, schedule: Q04DX003 (ip), vehicle: water): 111 % of control
- T/C (dose: 10.8 mg/kg/injection, schedule: Q04DX003 (ip), vehicle: water): 107 % of control
- T/C (dose: 18.0 mg/kg/injection, schedule: Q04DX003 (ip), vehicle: water): 108 % of control
- T/C (dose: 30.0 mg/kg/injection, schedule: Q04DX003 (ip), vehicle: water): 100 % of control

Structure (SMILES): CC[C@](O)(C(=O)O)c1cc2n(c(=O)c1CO)Cc1cc3ccccc3nc1-2
- T/C (dose: 18.0 mg/kg/injection, schedule: Q04DX003 (ip), vehicle: saline): 192 % of control
- T/C (dose: 30.0 mg/kg/injection, schedule: Q04DX003 (ip), vehicle: saline): 193 % of control
- T/C (dose: 50.0 mg/kg/injection, schedule: Q04DX003 (ip), vehicle: saline): 240 % of control

Structure (SMILES): CC1OC(OC2CC(O)(C(=O)CO)Cc3c(O)c4c(c(O)c32)C(=O)c2ccccc2C4=O)CC(N)C1O (stereo not drawn)
- T/C (dose: 0.13 mg/kg/injection, schedule: Q04DX003 (ip), vehicle: water): 114 % of control
- T/C (dose: 0.21 mg/kg/injection, schedule: Q04DX003 (ip), vehicle: water): 115 % of control
- T/C (dose: 0.6 mg/kg/injection, schedule: Q04DX003 (ip), vehicle: water): 117 % of control
- T/C (dose: 1.0 mg/kg/injection, schedule: Q04DX003 (ip), vehicle: water): 123 % of control
